The text below walks through data of ChEMBL document CHEMBL1130908, “Diastereoselective two-directional synthesis and cation transport ability of the central tristetrahydrofuranyl unit of meso polyether glabrescol as naturally occurring podand” (Bioorg Med Chem Lett, 1998).

In brackets after ≈: the same amount, converted by molar mass.

A short description of the assay: Compound was evaluated for cytotoxic activity against KB cells. In kind it is functional, cell-based. To be noted: Homo sapiens.

One may read the IC50 as the midpoint of a concentration-inhibition curve. Lower therefore signals greater potency. As for `CC(C)=CCC[C@](C)(O)[C@H]1CC[C@](C)([C@@H]2CC[C@H]([C@]3(C)CC[C@@H]([C@](C)(O)CCC=C(C)C)O3)O2)O1`, the midpoint of inhibition, the IC50, lay at 7 µg/mL (≈ 14.2 µM). With `CC(C)(O)/C=C/C[C@](C)(O)[C@H]1CC[C@@](C)([C@H]2CC[C@H]([C@]3(C)CC[C@H]([C@@](C)(O)C/C=C/C(C)(C)OO)O3)O2)O1`, the IC50 was found to be 5.3 µg/mL (≈ 9.8 µM). The IC50 values of the last two compounds are within 1.5-fold of each other.

`CC(=O)O[C@@H](CC[C@@H](O)[C@]1(C)CC[C@H]([C@@](C)(O)CCC=C(C)C)O1)[C@@]1(C)CC[C@H]([C@@](C)(O)CCC=C(C)C)O1` yielded an IC50 of 0.52 µg/mL (≈ 0.941 µM).

For `CC(=O)O[C@@H](CC[C@@H](OC(C)=O)[C@]1(C)CC[C@H]([C@@](C)(O)CCC=C(C)C)O1)[C@@]1(C)CC[C@H]([C@@](C)(O)CCC=C(C)C)O1`, the IC50 was > 100 µg/mL.
